Results taken from PMC11477000, “Enantioselective Binding of Proton Pump Inhibitors to Alpha1-Acid Glycoprotein and Human Serum Albumin—A Chromatographic, Spectroscopic, and In Silico Study” (International Journal of Molecular Sciences, 2024).

How the values were obtained:
[1] = target: human serum albumin (HSA) (Homo sapiens, UniProt P02768); assay: van 't Hoff thermodynamic analysis on HSA column; format: binding; settings: for Δ(ΔG°) / Δ(ΔH°) / Δ(ΔS°): pH 7, 95:5 buffer:IPA, 10–30 °C
Protocol: The temperature effect was investigated at pH 7 and a 95:5 buffer:IPA eluents ratio, between 10 and 30 °C on both columns. […] The determination of thermodynamic parameters can provide valuable insights into the process of enantiodiscrimination, including its mechanistic aspects. The applied classical van ’t Hoff methodology postulates the existence of solely enantioselective interaction sites on the stationary phase. Nonetheless, it should be emphasized that a more realistic approach would encompass both enantioselective and non-enantioselective interactions. The isoenantioselective temperatures (Tiso) were calculated by dividing Δ(ΔH°) by Δ(ΔS°). At this temperature, enthalpy and entropy compensations negate each other, resulting in the coelution of the two enantiomers and no separation. The Q values (Q = Δ(ΔH°)/T × Δ(ΔS°)298K) were used for visualizing the relative contribution of enthalpic and entropic terms to the free energy of adsorption. If the Q values were smaller than 1, the enantioseparation was controlled by entropy to a higher extent.
Classical van ’t Hoff analysis was applied to determine the thermodynamic parameters. Van ’t Hoff plots were constructed by plotting the natural logarithm of the retention factor as a function of the inverse of the absolute temperature (thermodynamic temperature) over a temperature range of 10–30 °C:(5) […]
In the equation, R represents the universal gas constant, T represents the absolute temperature in Kelvin, and k represents the retention factor of the enantiomers. ΔH° stands for the standard enthalpy, while ΔS° represents the standard entropy change of transfer of the solute from the mobile phase to the stationary phase. Φ is the phase ratio of the column. If ΔH° remains constant within the selected temperature range, a linear relationship can be observed between lnk and 1/T. The slope of this relationship is −ΔH°/R, and the intercept is ΔS°/R + ln Φ. Since the value of the phase ratio is rarely known, ΔS°* values (ΔS°* = ΔS° + Rln Φ) are often used to account for the uncertainty in Φ. Similarly, the difference in the change of standard enthalpy, Δ(ΔH°), and standard entropy, Δ(ΔS°), for the two enantiomers was calculated as follows:(6) lnα=−ΔΔH°/RT+ΔΔS°/R

HSA = target: T1, HSA (Homo sapiens, UniProt P02768); assay: UV titration (Benesi–Hildebrand) with HSA; format: binding; settings: n = 3, 1 μM HSA, pH 7.4 phosphate buffer, 24 °C, 278 nm, read-out: logKHSA ± Stdev. (logarithm of stability constant) (converted)
T1 construct: purchased Sigma-Aldrich
Protocol: (§1) The UV-Vis absorption assay is a straightforward and relatively simple method to examine the interactions between small molecules and macromolecules. Changes in the structure of the protein caused by the interacting ligand can lead to alterations in the absorption spectrum. […] Fixed wavelength measurements were conducted at the absorption maxima of AGP and HSA. […] The change in the absorbance and wavelength maximum in the UV spectra during the titration refers to the complex formation between proteins and PPIs. The Benesi–Hildebrand method was used to determine the stability constants based on Equation (7).
(§2) The absorption spectra were recorded on a Jasco V-750 spectrophotometer (Jasco, Tokyo, Japan) at 24 °C using 1.0 cm path-length quartz cuvettes. Then, 1 μM HSA and AGP were dissolved in a sodium phosphate buffer solution (pH 7.4; 0.1 M) and their concentration was kept constant. The PPIs were dissolved in DMSO, and further diluted with the AGP or HSA solution. Next, 1000 μL of 1 μM HSA and AGP solutions was titrated with the PPI stock solution in 1 μL steps. The concentration of the PPIs was set to 4.00, 7.98, 11.96, 15.94, 19.90, 23.86, 27.81, and 31.75 μM. The binding constants were determined using the Benesi–Hildebrand equation:(7) A0/A−A0=εPPI/εAPPI−εPPI+εPPI/εAPPI−εPPI×1/K×[C] where A0 is the absorbance of the HSA or AGP at 278 nm, A is the absorbance of the formed complex also at 278 nm, εPPI is the extinction coefficient of the actual PPI, εAPPI is the extinction coefficient of the albumin or AGP and PPI complex, K is the binding coefficient, and [C] is the concentration of the investigated PPI. The plot of A0/A − A0 versus C^−1 has a slope of K^−1. All experiments were performed in triplicate.

AGP = assay: UV titration (Benesi–Hildebrand) with AGP; format: binding, human; settings: human, pH 7.4, UV titration, n = 3; 1 μM AGP, pH 7.4 phosphate buffer, 24 °C, 278 nm; read-out: logKAGP ± Stdev (logarithm of stability constant) (converted)
Protocol: as §1, §2

[2] = difference between the two enantiomers

human serum albumin (HSA), sequence (P02768 25-609): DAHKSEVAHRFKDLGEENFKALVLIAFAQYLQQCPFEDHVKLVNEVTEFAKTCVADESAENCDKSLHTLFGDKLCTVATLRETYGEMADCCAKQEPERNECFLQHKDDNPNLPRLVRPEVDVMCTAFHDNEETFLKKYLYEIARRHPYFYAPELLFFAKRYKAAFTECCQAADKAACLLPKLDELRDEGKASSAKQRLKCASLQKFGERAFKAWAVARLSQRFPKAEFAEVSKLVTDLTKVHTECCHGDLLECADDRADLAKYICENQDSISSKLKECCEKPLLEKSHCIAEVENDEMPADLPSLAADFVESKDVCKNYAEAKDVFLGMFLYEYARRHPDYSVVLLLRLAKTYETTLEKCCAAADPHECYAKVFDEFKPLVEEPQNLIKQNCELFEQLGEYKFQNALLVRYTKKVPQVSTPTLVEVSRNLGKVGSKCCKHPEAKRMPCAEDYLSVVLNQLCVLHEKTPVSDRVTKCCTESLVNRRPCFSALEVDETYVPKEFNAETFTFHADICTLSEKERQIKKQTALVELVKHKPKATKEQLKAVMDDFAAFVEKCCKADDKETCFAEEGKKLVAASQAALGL
T1 sequence (P02768 25-609): as above

SMILES	Q ([1]; Q = Δ(ΔH°)/T × Δ(ΔS°)298K)	Δ(ΔG°) [1, 2] [kcal/mol]	Δ(ΔH°) [1, 2] [kcal/mol]	Δ(ΔS°) [1, 2] [J/molK]	Tiso isoenantioselective temperature ([1]; Δ(ΔH°)/Δ(ΔS°)) [°C]	Kd (HSA) [µM]	Kd (AGP) [µM]	Δ(ΔG°) ([1]; single enantiomer) [kcal/mol]	Δ(ΔH°) ([1]; single enantiomer) [kcal/mol]	Δ(ΔS°) ([1]; single enantiomer) [J/molK]
Cc1c(OCC(F)(F)F)ccnc1C[S+]([O-])c1nc2ccccc2[nH]1 (stereo not drawn) [Lansoprazole, lansoprazole]	1.4	-0.17	-0.669	−7.2	128.9	–	–	–	–	–
Cc1c(OCC(F)(F)F)ccnc1C[S@@+]([O-])c1nc2ccccc2[nH]1 [R-lansoprazole, dexlansoprazole]	–	–	–	–	–	60.3	27.5	-1.39	-2.01	−8.7
Cc1c(OCC(F)(F)F)ccnc1C[S@+]([O-])c1nc2ccccc2[nH]1 [S-lansoprazole]	–	–	–	–	–	21.9	14.8	-1.58	-2.68	−15.9
